Assay results published in paper PMC7999550, “Novel Multifunctional Ascorbic Triazole Derivatives for Amyloidogenic Pathway Inhibition, Anti-Inflammation, and Neuroprotection” (Molecules, 2021).

What was measured:
[1] = target: T1, amyloid-β (1-42) peptide (Homo sapiens, UniProt P05067); assay: Amyloid aggregation inhibition assay (ThT); format: biochemical; conditions: for inhibition at 400 µM: at a concentration of 400 µM, ThT, 48 h
T1 construct: 9 µL of 25 μM working solution of amyloid-β (1-42) peptide; purchased Anaspec, Fremont, CA, USA
Protocol: The ascorbic derivatives ware evaluated for activities of amyloid β aggregation inhibition at a concentration of 400 µM. Briefly, in each well of transparent plate, 9 µL of 25 μM working solution of amyloid-β (1-42) peptide and 1 µL of test compound were gently mixed and then incubated in the dark at 37 °C for 48 h. After the incubation, 200 µL of 5 µM ThT (Sigma®, Saint Louis, MO, USA) in 50 mM Tris buffer (pH 7.4) was added to each well. Fluorescence was then measured at Ex = 446 nm and Em = 480 nm using a SpectraMax Gemini EM™, San Jose, CA, USA [26, 62]. Curcumin was used as a positive control, at a concentration of 100 µM.

[2] = Antioxidant activity assay (DPPH); conditions: for Antioxidant %Inhibition (±SEM): at a concentration of 400 µM, mean ± SEM, n = 3
Protocol: […] The reaction was a mixture of 70 µL of DPPH solution (500 µM in 80% methanol), 10 µL of 80% methanol, and 20 µL of test compound. The reaction was incubated at room temperature in the dark for 30 min. The absorbance was then measured at 517 nm using Infinite 200 Pro™ (Tecan). Ascorbic acid was used as a positive control.

[3] = system: P19-derived neurons; assay: Viability assay (XTT) on P19-derived neurons; format: cell-based; conditions: 18 h, nontoxic condition, versus 0.5% DMSO, derivatives at 1 nM
Protocol: (§1) P19 cells were grown in alpha minimal essential medium (α-MEM) supplemented with 7.5% newborn calf serum (NCS), 2.5% fetal bovine serum (FBS), and 1% antibiotics–antimycotic solution in a 5% CO2 humidified atmosphere at 37 °C. Cells in monolayer cultures were maintained in exponential growth by subculturing every two days.
(§2) Exponentially grown cultures were trypsinized and dissociated into single cells. P19 cells (2 × 10^6 cells/mL) were then suspended in 10 mL α-MEM supplemented with 5% FBS, 1% antibiotics–antimycotic solution, and 0.5 µM all transretinoic acid (RA) and seeded onto a 100-mm bacteriological culture dish. The cells formed large aggregates in suspension. After four days of RA treatment, the aggregates were dissociated by 5-mL glass measuring pipette and replated on poly-L-lysine-precoated multiwell plates (the multiwell plates were coated with 50 µg/mL poly-L-lysine, dissolved in PBS overnight, and sterilized under UV light for 30 min) at 7 × 10^4 cells/mL (150 µL/well in 96-well plate) in α-MEM supplemented with 10% FBS and 1% antibiotics–antimycotic solution and incubated for 24 h. Cytosine-1-β-D-arabinoside or Ara-C (10 µM) was added at day 1 after plating, and the medium was changed every two to three days. The differentiated neuronal cells, P19-derived neurons, were used after day 14 of the differentiation process.
The assay was carried out on P19-derived neurons cultured in a 96-well plate. After 14 days of the differentiation process, the α-MEM, supplemented with 10% FBS, 10 μM Ara-C, and 1% antibiotics–antimycotic solution, was removed and DMSO solutions of the sample, diluted with α-MEM supplemented with 10% FBS and 1% antibiotics–antimycotic solution in the presence of 10 μM Ara-C, were added to produce the concentrations of 10,000, 1000, 100, 10, and 1 nM. A concentration of DMSO was added to the cultures at 0.5% v/v. […] The OD value was determined by using a microplate reader at 450 nm. Data were expressed as mean ± SEM (n = 3, each n was run in triplicate), with the medium as a control, representing 100% cell viability. […]

[4] = target: T2, BACE1 (Homo sapiens, UniProt P56817); assay: β-Secretase (BACE1) inhibition assay (FRET); format: biochemical; conditions: for inhibition at 400 µM: at a concentration of 400 µM, mean ± SEM, n = 3
T2 construct: purchased Sino Biological, Beijing, China
Protocol: All ascorbic derivatives (2a–2c and 5a–5c), at a concentration of 400 µM, were evaluated for β-secretase inhibitory activities by using the FRET assay. Briefly, the reaction composing 30 µL of 0.01 unit/µL BACE1 enzyme stock solution, 20 µL of 5% DMSO of test compound, 30 µL of sodium acetate buffer (pH 4.5), and 20 µL of 125 µM β-secretase substrate IV (Calbiochem®, San Diego, CA, USA) was incubated at 37 °C for 30 min. Fluorescence was then measured at Ex = 380 nm and Em = 510 nm using a SpectraMax Gemini EM™, San Jose, CA, USA [26, 61]. β-secretase inhibitor I (Anaspec®, Fremont, CA, USA) was used as a positive control, at a concentration of 100 µM. The experiments were performed in triplicate. For the compounds exerting inhibitory activities more than 20%, an IC50 value was further determined.

[5] = system: P19-derived neurons; assay: Neuroprotective assay, serum-deprivation-induced oxidative stress (XTT); format: cell-based; conditions: 1 nM, p > 0.05
Protocol: as §1
as §2, with “Cytosine-1-β-D-arabinoside or Ara-C (10 µM) was added at day 1 after plating, and the medium was changed every two to three days. The differentiated neuronal cells, P19-derived neurons, were used after day 14 of the differentiation process.” left out
The assay was carried out with P19-derived neurons cultured in a 96-well plate by using the serum-deprivation method. […] Data were expressed as mean ± SEM (n = 3, each n was run in triplicate), with the medium as a control, representing 100% cell viability. […]

[6] = system: COX-2; assay: COX-2 mRNA expression in LPS-activated RAW 264.7 (RT-qPCR); format: cell-based, murine; conditions: 10 and 100 nM, 1 h pretreatment before LPS, n = 3, p < 0.05
Protocol: (§3) Cell lines that reached 80% confluence within 48 h were selected for further gene expression study. […] The experiment was conducted in triplicate. After the cell lines were treated with the testing samples for one hour, 2 μg/mL LPS (lipopolysaccharide; Sigma-Aldrich, St. Louis, MO, USA) was added to the cell lines and then maintained in an incubator for another 24 h to induce the cell inflammatory process. […] Total RNA quality and quantity were examined by NanoDrop. An equivalent of 2000 ng total RNA from each sample was then reverse-transcribed to produce first-strand complementary DNA (cDNA) using a Tetro cDNA Synthesis Kit (Bioline USA Inc., Memphis, TN, USA), according to the manufacturer's instruction. Briefly, the total RNA template was mixed with 4 μ[…] buffer, 1 μL oligo dT(18), 1 μL dNTP mix […], 1 μL Rnase inhibitor, and 1 μL reverse transcriptase. Diethylpyrocarbonate (DEPC)-treated water was then added to a mixture to adjust the volume to a final 20-μl reaction. An incubation process to produce first strand cDNA was carried out in a thermal cycler (SensoQuest Labcycler). Primer annealing and strand extending occurred at 45 °C for 30 min and a reverse transcriptase was finally heat-inactivated at 85 °C for 5 min. The corresponding cDNA products were then used as a template in a quantitative polymerase chain reaction (qPCR) to study COX-2 and iNOS gene expressions, with GAPDH as a reference gene. The primer sequences for qPCR quantifications were as follows: COX-2: [NT] (reverse); iNOS: [NT] (reverse), and GAPDH: [NT] (reverse). […] Then, 20 μL qPCR reaction was prepared by mixing a 1-μL cDNA template with 0.8 μL forward primer […], 0.8 μL reverse primer […], 10 μL SYBR, and 7.4 μL DI water. Gene expression was measured in a 96-well plate using a BIO-RAD iCycler IQ^TM5 detection system. qPCR reaction was initially heated to 95 °C 10 min, and then underwent 40 cycles of 95 °C 15 s and 60 °C 1 min. […] Each corresponding expression was computed as a relative fold change using the 2^-delta delta Ct method, normalized to the GAPDH gene.

[7] = system: iNOS; assay: iNOS mRNA expression in LPS-activated RAW 264.7 (RT-qPCR); format: cell-based, murine; conditions: 10 and 100 nM, 1 h pretreatment before LPS, n = 3, p < 0.05
Protocol: as §3

T2 sequence (P56817 46-501): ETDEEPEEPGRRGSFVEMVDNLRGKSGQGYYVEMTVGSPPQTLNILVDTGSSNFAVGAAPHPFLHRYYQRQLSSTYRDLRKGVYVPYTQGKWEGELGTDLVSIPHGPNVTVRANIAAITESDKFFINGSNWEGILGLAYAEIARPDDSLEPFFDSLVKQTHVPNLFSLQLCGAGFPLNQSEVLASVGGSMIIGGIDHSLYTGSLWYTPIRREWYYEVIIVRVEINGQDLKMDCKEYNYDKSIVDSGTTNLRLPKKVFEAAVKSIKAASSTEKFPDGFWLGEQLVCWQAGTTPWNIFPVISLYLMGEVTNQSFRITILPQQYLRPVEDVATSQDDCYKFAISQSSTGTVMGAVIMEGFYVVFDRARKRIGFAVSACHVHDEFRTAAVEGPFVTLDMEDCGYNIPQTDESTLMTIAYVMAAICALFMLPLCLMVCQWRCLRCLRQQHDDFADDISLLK
T1 sequence (P05067 672-713 limits assumed): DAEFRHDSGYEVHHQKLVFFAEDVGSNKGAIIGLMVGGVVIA

## O=C1O[C@H]([C@@H](O)CO)C(OCc2cn(Cc3ccc(O)cc3)nn2)=C1O [Compound 5a, (R)-5-((S)-1,2-Dihydroxyethyl)-3-hydroxy-4-((1-(4-hydroxybenzyl)-1H-1,2,3-triazol-4-yl)-methoxy)furan-2(5H)-one]
[1]; mean ± SEM, n = 3
  inhibition at 400 µM: 34.5 ± 3.62%
[2]
  IC50: 91.2 µM
  Antioxidant %Inhibition (±SEM): 78.42 ± 0.93 %

## O=C1O[C@H]([C@@H](O)COCc2cn(Cc3ccc(O)cc3)nn2)C(O)=C1O [Compound 2a, (R)-3,4-Dihydroxy-5-((S)-1-hydroxy-2-((1-(4-hydroxybenzyl)-1H-1,2,3-triazol-4-yl)metho-xy)ethyl)furan-2(5H)-one]
[1]
  IC50: 319 µM
[1]; mean ± SEM, n = 3
  inhibition at 400 µM: 53 ± 0.6%
[3]
  cytotoxicity / cell viability of P19-derived neurons: significantly higher viability than 0.5% DMSO
[4]
  inhibition at 400 µM: 6.8 ± 2.69%
[5]
  neuroprotective activity compared with quercetin (positive control): no statistical differences
[2]
  IC50: 206 µM
  Antioxidant %Inhibition (±SEM): 66.54 ± 0.56 %

## COc1cc(Cn2cc(COC3=C(O)C(=O)O[C@@H]3[C@@H](O)CO)nn2)ccc1O [Compound 5b, (R)-5-((S)-1,2-Dihydroxyethyl)-3-hydroxy-4-((1-(4-hydroxy-3-methoxybenzyl)-1H-1,2,3-triazol-4-yl)methoxy)furan-2(5H)-one]
[1]; mean ± SEM, n = 3
  inhibition at 400 µM: 19.6 ± 1.83%
[2]
  IC50: 103 µM
  Antioxidant %Inhibition (±SEM): 77.37 ± 1.60 %

## COc1cc(Cn2cc(COC[C@H](O)[C@H]3OC(=O)C(O)=C3O)nn2)ccc1O [Compound 2b, (R)-3,4-Dihydroxy-5-((S)-1-hydroxy-2-((1-(4-hydroxy-3-methoxybenzyl)-1H-1,2,3-triazol-4-yl)methoxy)ethyl)furan-2(5H)-one]
[1]
  IC50: 319 µM
[1]; mean ± SEM, n = 3
  inhibition at 400 µM: 51 ± 2.12%
[4]
  inhibition at 400 µM: 6.29 ± 0.98%
[5]
  neuroprotective activity compared with quercetin (positive control): no statistical differences
[2]
  IC50: 156 µM
  Antioxidant %Inhibition (±SEM): 62.81 ± 2.62 %

## O=C1O[C@H]([C@@H](O)COCc2cn(CC3Cc4c([nH]c5ccccc45)CN3)nn2)C(O)=C1O (stereo partly drawn) [Compound 2c, (R)-3,4-Dihydroxy-5-((S)-1-hydroxy-2-((1-((2,3,4,9-tetrahydro-1H-pyrido[3,4-b]indol-3-yl)-methyl)-1H-1,2,3-triazol-4-yl)methoxy)ethyl)furan-2(5H)-one]
[1]
  IC50: 92.3 µM
[1]; mean ± SEM, n = 3
  inhibition at 400 µM: 71.8 ± 1.42%
[6]
  expression of COX-2 gene compared to 0.001% DMSO control: downregulate
other
  melting point: 172 to 174 °C
[4]
  IC50: 726 µM
  inhibition at 400 µM: 23.5 ± 1.66%
[7]
  expression of iNOS gene compared to 0.001% DMSO control: downregulate
[2]
  IC50: 72.3 µM
  Antioxidant %Inhibition (±SEM): 94.67 ± 0.50%

## O=C1O[C@H]([C@@H](O)CO)C(OCc2cn(CC3Cc4c([nH]c5ccccc45)CN3)nn2)=C1O (stereo partly drawn) [Compound 5c, (R)-5-((S)-1,2-Dihydroxyethyl)-3-hydroxy-4-((1-((2,3,4,9-tetrahydro-1H-pyrido[3,4-b]indol-3-yl)methyl)-1H-1,2,3-triazol-4-yl)methoxy)furan-2(5H)-one]
[1]
  IC50: 136 µM
[1]; mean ± SEM, n = 3
  inhibition at 400 µM: 68.26 ± 0.67%
[6]
  expression of COX-2 gene compared to 0.001% DMSO control: downregulate
other
  melting point: 144 to 146 °C
[3]
  cytotoxicity / cell viability of P19-derived neurons: significantly higher viability than 0.5% DMSO
[4]
  IC50: 593 µM
  inhibition at 400 µM: 27.3 ± 1.41%
[7]
  expression of iNOS gene compared to 0.001% DMSO control: downregulate
[2]
  IC50: 62.9 µM
  Antioxidant %Inhibition (±SEM): 85.84 ± 2.43%

## O=C1O[C@H]([C@@H](O)CO)C(O)=C1O [Ascorbic acid, reference compound]
[1]
  IC50: 146 µM
[1]; mean ± SEM, n = 3
  inhibition at 400 µM: 63.4 ± 0.87%
[6]
  expression of COX-2 gene compared to 0.001% DMSO control: downregulate
[3]
  cytotoxicity / cell viability of P19-derived neurons: decreased
[4]
  inhibition at 400 µM: 7.84 ± 1.75%
[7]
  expression of iNOS gene compared to 0.001% DMSO control: downregulate
[2]
  IC50: 21.3 µM
  Antioxidant %Inhibition (±SEM): 94.85 ± 0.62%

## COc1cc(/C=C/C(=O)CC(=O)/C=C/c2ccc(O)c(OC)c2)ccc1O [Curcumin, reference compound]
[1]; positive control at 100 μM, mean ± SEM, n = 3
  inhibition at 100 µM: 94.5 ± 1.15%
